The NIST ThermoML archive (doi:10.1021/je5002126)

Columns and labels:
[1] = xn = mol fraction of the nth substance listed; conditions: for electrical conductivity / viscosity / mass density: 101 kPa, Liquid; for electrical conductivity: Alternating current cell with electrodes; for viscosity: Concentric cylinders viscometry; for mass density: Vibrating tube method; for surface tension liquid-gas: Ring tensiometer
[2] = refractive index (Na D-line) (dimensionless); xn = mol fraction of the nth substance listed; conditions: 101 kPa, Liquid, Standard Abbe refractometry

CCCC[N+](CCCC)(CCCC)CCCC.[Cl-] [tetrabutylammonium chloride] + OCCO
Conditions | electrical conductivity, [1] [S/m] | mass density, [1] [kg/m3] | refractive index, [2] | surface tension liquid-gas, [1] [mN/m] | viscosity, [1] [mPa·s]
293.15 K, x1 = 0.2 | 0.000202 | 1145 | 1.4615 | – | 85.33
293.15 K, x1 = 0.25 | 0.000154 | 1130 | 1.4653 | – | 105
293.15 K, x1 = 0.333 | 9.91e-05 | 1105 | 1.4703 | – | 212
303.15 K, x1 = 0.2 | 0.000272 | 1138 | 1.4585 | 40.7 | 56.9
303.15 K, x1 = 0.25 | 0.000214 | 1123 | 1.4619 | 40.1 | 71.9
303.15 K, x1 = 0.333 | 0.000139 | 1099 | 1.4672 | 39.3 | 127
313.15 K, x1 = 0.2 | 0.000354 | 1132 | 1.4554 | 39.9 | 37.16
313.15 K, x1 = 0.25 | 0.000293 | 1117 | 1.4587 | 39.4 | 45.17
313.15 K, x1 = 0.333 | 0.00022 | 1092 | 1.4641 | 38.3 | 76.43
323.15 K, x1 = 0.2 | 0.00045 | 1125 | 1.4523 | 39.1 | 26.27
323.15 K, x1 = 0.25 | 0.000387 | 1110 | 1.4556 | 38.3 | 29.37
323.15 K, x1 = 0.333 | 0.00026 | 1086 | 1.4609 | 37.2 | 49.3
333.15 K, x1 = 0.2 | 0.000521 | 1119 | 1.4491 | 38.3 | 19.7
333.15 K, x1 = 0.25 | 0.000457 | 1104 | 1.4525 | 37.5 | 20.23
333.15 K, x1 = 0.333 | 0.000375 | 1079 | 1.4578 | 36.6 | 33.6
343.15 K, x1 = 0.2 | 0.000615 | 1112 | 1.445 | 37.5 | 14.85
343.15 K, x1 = 0.25 | 0.000567 | 1097 | 1.4495 | 36.8 | 14.53
343.15 K, x1 = 0.333 | 0.000385 | 1073 | 1.4545 | 35.7 | 23.53
353.15 K, x1 = 0.2 | 0.000722 | 1106 | 1.4427 | 36.8 | 10.5
353.15 K, x1 = 0.25 | 0.00062 | 1091 | 1.4469 | 36.1 | 10.7
353.15 K, x1 = 0.333 | 0.000468 | 1067 | 1.4509 | 34.9 | 16
